Measurements from patent US12371430B2, “5-morpholin-4-yl-pyrazolo[4,3-b]pyridine derivatives” (Merck Patent GmbH, priority 2018, dated 2025).
pIC50: −log10 of the molar value.

Experiments:
[1] = system: phosphorylation of Chk1 (Ser 345) in HT29 colon adenocarcinoma cells; assay: pCHK1 cellular assay; type: cell-based; settings: Homo sapiens, HT-29, hydroxyurea 3 mM, 4 h
Description: Chk1 kinase acts downstream of ATR and has a key role in DNA damage checkpoint control. Activation of Chk1 involves phosphorylation of Ser317 and Ser345 (regarded as the preferential target for phosphorylation/activation by ATR) and occurs in response to blocked DNA replication and certain forms of genotoxic stress. Phosphorylation at Ser 345 serves to localize Chk1 to the nucleus following checkpoint activation.
This assay measures a decrease in phosphorylation of Chk1 (Ser 345) in HT29 colon adenocarcinoma cells following treatment with compound and hydroxyurea (which promotes fork stalling because of dNTP depletion) and using an immunocytochemical procedure and high content imaging.
For the assay HT29 cells are plated in culture medium (DMEM high Glucose (no phenol red), 2 mM Glutamax, 1 mM Pyruvate, 10% FCS into Greiner 384 well plates, black, μclear #781090 (2500 cells/well/30 μl) and incubated for at least 20 hours at 37° C., 10% CO2 and 90% rH. Diluted test compounds (1 nM-30 μM final) and hydroxyurea (3 mM final) are added simultaneously and cells are incubated for 4 h at 37° C. After fixation/prmeabilisation with 100% MeOH (−20° C. cold) and permeabilisation with 0.2% Triton X-100 a complete immunocytochemical procedure is performed using a specific anti-pChk1 antibody (Cell Signaling, #2348BF) and fluorescently labelled secondary antibody (Alexa Fluor® 488 goat anti-rabbit F(ab′)2 fragment, Invitrogen A11070) and parallel nuclear staining for cell counting.
The nuclear localised pChk1 signal is detected on an ImageXpress Ultra confocal high content reader and reported as % positive cells (nuclei).

ATR/ATRIP = ATR/ATRIP (Homo sapiens (Human), UniProt Q13535); assay: ATR/ATRIP kinase assay (TR-FRET, p53 Ser15 phosphorylation); type: biochemical; settings: 0.5 μM ATP, 50 nM p53
Sequence of ATR/ATRIP (Q13535 whole entry): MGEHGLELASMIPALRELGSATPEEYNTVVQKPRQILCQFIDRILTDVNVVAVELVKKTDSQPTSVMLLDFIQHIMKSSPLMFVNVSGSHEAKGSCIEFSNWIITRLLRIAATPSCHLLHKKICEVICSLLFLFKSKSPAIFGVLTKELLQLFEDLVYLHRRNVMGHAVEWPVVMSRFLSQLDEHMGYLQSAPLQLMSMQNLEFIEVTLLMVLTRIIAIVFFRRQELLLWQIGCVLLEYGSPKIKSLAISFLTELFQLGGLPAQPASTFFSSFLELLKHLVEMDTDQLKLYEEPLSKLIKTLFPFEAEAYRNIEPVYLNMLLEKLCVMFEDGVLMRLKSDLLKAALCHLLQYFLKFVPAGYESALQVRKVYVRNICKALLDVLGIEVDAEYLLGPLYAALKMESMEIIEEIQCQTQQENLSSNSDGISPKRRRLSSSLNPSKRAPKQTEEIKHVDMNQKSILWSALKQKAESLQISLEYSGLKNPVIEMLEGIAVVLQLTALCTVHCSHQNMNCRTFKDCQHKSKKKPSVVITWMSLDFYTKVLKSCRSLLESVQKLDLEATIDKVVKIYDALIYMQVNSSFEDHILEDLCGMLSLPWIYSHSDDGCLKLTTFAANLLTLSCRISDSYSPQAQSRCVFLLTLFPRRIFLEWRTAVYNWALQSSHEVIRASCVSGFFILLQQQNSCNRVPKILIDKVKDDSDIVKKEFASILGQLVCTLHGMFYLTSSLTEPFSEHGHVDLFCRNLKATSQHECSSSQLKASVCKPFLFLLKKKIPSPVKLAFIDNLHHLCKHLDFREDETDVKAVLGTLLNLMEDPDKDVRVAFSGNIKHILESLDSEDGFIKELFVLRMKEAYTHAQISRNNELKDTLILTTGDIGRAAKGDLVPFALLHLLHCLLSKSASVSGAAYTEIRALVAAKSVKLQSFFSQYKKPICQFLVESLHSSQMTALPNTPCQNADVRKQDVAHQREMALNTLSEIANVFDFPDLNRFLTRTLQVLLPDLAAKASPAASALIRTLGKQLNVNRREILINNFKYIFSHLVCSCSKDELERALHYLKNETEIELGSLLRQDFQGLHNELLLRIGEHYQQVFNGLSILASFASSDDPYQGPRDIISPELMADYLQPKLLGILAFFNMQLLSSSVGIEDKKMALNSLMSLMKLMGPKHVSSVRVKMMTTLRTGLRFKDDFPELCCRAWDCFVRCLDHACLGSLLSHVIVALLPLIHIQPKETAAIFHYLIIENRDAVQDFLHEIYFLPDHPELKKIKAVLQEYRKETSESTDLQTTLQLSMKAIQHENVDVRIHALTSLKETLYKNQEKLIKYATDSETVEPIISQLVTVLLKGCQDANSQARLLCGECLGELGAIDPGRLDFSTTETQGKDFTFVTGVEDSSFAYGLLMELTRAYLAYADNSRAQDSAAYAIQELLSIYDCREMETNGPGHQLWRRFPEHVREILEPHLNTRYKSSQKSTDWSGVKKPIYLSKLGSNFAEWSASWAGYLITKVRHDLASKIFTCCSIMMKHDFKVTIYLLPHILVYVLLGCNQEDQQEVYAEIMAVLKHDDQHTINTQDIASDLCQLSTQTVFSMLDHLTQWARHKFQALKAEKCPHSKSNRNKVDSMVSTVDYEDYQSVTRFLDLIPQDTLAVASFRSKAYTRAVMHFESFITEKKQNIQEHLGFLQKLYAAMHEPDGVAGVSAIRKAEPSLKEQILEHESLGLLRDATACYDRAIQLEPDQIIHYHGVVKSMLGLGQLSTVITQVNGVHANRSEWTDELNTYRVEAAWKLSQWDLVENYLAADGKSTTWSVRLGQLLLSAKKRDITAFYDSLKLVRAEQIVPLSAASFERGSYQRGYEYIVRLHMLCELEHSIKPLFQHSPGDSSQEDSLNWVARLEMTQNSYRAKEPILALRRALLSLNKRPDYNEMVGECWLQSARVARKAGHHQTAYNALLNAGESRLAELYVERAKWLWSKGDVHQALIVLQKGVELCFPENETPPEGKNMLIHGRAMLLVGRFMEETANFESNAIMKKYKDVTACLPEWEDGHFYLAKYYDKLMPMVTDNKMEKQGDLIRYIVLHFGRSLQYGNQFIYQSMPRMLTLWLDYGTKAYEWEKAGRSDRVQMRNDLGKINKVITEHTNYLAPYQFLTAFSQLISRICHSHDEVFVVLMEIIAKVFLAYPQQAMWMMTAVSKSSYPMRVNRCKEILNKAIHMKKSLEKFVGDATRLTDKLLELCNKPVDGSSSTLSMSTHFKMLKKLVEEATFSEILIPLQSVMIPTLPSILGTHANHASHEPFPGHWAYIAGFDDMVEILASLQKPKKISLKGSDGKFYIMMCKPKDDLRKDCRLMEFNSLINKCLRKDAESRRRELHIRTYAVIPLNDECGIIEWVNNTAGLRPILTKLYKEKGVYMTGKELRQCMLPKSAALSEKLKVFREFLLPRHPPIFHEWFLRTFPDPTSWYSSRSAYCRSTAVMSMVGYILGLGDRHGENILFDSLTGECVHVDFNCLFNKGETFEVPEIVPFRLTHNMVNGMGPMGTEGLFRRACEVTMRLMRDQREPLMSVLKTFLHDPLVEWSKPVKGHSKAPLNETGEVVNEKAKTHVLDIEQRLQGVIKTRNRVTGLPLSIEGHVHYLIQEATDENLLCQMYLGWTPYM
Sequence of ATR/ATRIP (Q8WXE1 whole entry partner): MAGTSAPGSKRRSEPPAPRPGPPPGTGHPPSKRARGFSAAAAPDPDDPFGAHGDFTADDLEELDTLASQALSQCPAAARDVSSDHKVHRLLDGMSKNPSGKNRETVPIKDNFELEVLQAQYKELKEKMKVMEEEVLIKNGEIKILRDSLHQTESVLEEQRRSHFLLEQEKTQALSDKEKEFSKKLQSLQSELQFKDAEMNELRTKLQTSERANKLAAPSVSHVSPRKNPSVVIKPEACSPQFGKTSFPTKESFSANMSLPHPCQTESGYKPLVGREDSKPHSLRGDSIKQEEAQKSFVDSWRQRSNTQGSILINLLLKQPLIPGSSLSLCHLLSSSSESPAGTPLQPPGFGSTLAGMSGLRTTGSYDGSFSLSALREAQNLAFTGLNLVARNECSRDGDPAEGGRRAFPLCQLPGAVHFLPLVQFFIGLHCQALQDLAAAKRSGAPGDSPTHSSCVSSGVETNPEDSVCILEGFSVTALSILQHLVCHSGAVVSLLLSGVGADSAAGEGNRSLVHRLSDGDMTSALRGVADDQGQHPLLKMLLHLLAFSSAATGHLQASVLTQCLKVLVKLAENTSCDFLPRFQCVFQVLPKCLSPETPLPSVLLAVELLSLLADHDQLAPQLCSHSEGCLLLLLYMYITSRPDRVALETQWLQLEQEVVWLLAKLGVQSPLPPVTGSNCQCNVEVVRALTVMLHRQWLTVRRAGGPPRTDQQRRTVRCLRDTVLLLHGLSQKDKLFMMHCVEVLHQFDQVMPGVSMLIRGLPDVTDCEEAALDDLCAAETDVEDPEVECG
Protocol: ATR/ATRIP Kinase Assay—Measurement of ATR/ATRIP Inhibition
The IC50 value was determined by an ATR/ATRIP enzymatic assay. The assay comprises two steps: the enzymatic reaction and the detection step. First, a mixture of ATR/ATRIP protein (Ataxia Telangiectasia and Rad3-related protein/ATR interacting protein), the compound in question at different concentrations, p53 as substrate protein and adenosine triphosphate (ATP) are incubated in assay buffer. ATR phosporylates p53 at Ser15 and other residues. The amount of phosphorylated p53 is then detected using specific antibodies and the TR-FRET assay technology.
In detail: The ATR/ATRIP enzymatic assay is performed as a TR-FRET-(HTRF™, Cisbio Bioassays) based 384-well assay. In a first step, purified human recombinant ATR/ATRIP (human ATR, full length, GenBank ID: NM_001184.3, and human ATRIP, full length, GenBank ID AF451323.1, co-expressed in a mammalian cell line) is incubated in assay buffer for 15 minutes at 22° C. with test compound at different concentrations or without test compound (as a negative control). The assay buffer contains 25 mM HEPES pH 8.0, 10 mM Mg(CH3COO)2, 1 mM MnCl2, 0.1% BSA, 0.01% Brij® 35, and 5 mM dithiothreitol (DTT). An Echo 555 (Labcyte) is used for dispensing of compound solutions. Then, in a second step, purified human recombinant cmyc-tagged p53 (human p53, full length, GenBank ID: BC003596, expressed in Sf21 insect cells) and ATP are added and the reaction mixture is incubated for 25-35 minutes, typically 25 minutes, at 22° C. The pharmacologically relevant assay volume is 5 μl. The final concentrations in the assay during incubation of the reaction mixture are 0.3-0.5 nM, typically 0.3 nM, ATR/ATRIP, 50 nM p53, and 0.5 μM ATP. The enzymatic reaction is stopped by the addition of EDTA. The generation of phosphorylated p53 as a result of the ATR mediated reaction in the presence of ATP is detected by using specific antibodies [labeled with the fluorophores europium (Eu) as donor and d2 as acceptor (Cisbio Bioassays)] enabling FRET. For this purpose, 2 μl of antibody-containing stop solution (12.5 mM HEPES pH 8.0, 125 mM EDTA, 30 mM sodium chloride, 300 mM potassium fluoride, 0.006% Tween-20, 0.005% Brij® 35, 0.21 nM anti-phospho-p53(Ser15)-Eu antibody, 15 nM anti-cmyc-d2 antibody) are added to the reaction mixture. Following signal development for 2 h the plates are analyzed in an EnVision (PerkinElmer) microplate reader using the TRF mode with laser excitation. Upon excitation of the donor europium at 340 nm the emitted fluorescence light of the acceptor d2 at 665 nm as well as from the donor Eu at 615 nm are measured. The amount of phosphorylated p53 is directly proportional to the ratio of the amounts of emitted light i.e. the ratio of the relative fluorescence units (rfu) at 665 nm and 615 nm. Data are processed employing the Genedata Screener software. In particular, IC50 values are determined in the usual manner by fitting a dose-response curve to the data points using nonlinear regression analysis. • IC50=half maximal inhibitory concentration • ATP=Adenosine triphosphate • TR-FRET=Time-Resolved Fluorescence Resonance Energy Transfer • HTRF®=Homogeneous Time Resolved Fluorescence • HEPES=2-(4-(2-Hydroxyethyl)-1-piperazinyl)-ethanesulfonic acid • Mg(CH3COO)2=Magnesium acetate • MnCl2=Manganese(II)-chloride • BSA=Bovine Serum Albumin • EDTA=Ethylendiamine Tetraacetate • TRF=Time Resolved Fluorescence pCHK1 Cellular Assay

| Compound | pIC50 [1] | pIC50 (ATR/ATRIP) |
| --- | --- | --- |
| Cc1ccc(S(C)(=O)=O)cc1-c1cc(N2CCOC[C@H]2C)nc2c(-c3ccn[nH]3)nn(C)c12 [Compound 75, (3R)-4-[7-(5-Methanesulfonyl-2-methylphenyl)-1-methyl-3-(1H-pyrazol-5-yl)-1H-pyrazolo[4,3-b]pyridin-5-yl]-3-methylmorpholine] | 6.00 to 7.00 | 7.68 |
| Cc1cc(-c2n[nH]c3c(-c4ccc(S(C)(=O)=O)nc4C)cc(N4CCOC[C@H]4C)nc23)[nH]n1 [Compound 13, (3R)-4-[7-(6-Methanesulfonyl-2-methylpyridin-3-yl)-3-(3-methyl-1H-pyrazol-5-yl)-1H-pyrazolo[4,3-b]pyridin-5-yl]-3-methylmorpholine] | 6.00 to 7.00 | 8.85 |
| C[C@@H]1COCCN1c1cc(-c2ccc(S(C)(=N)=O)cc2)c2c(n1)c(-c1cc[nH]n1)nn2C (stereo partly drawn) [Compound 6, Imino(methyl)(4-{1-methyl-5-[(3R)-3-methylmorpholin-4-yl]-3-(1H-pyrazol-3-yl)-1H-pyrazolo[4,3-b]pyridin-7-yl}phenyl)-lambda6-sulfanone] | 6.00 to 7.00 | 8.05 |
| C[C@@H]1COCCN1c1ccc2c(n1)c(-c1cc[nH]n1)nn2CCc1ccccc1 [Compound 64, 5-((R)-3-Methyl-morpholin-4-yl)-1-phenethyl-3-(1H-pyrazol-3-yl)-1H-pyrazolo[4,3-b]pyridine] | 5.00 to 6.00 | 7.29 |
| C[C@@H]1COCCN1c1cc(-c2ccccn2)c2[nH]nc(-c3cc[nH]n3)c2n1 [Compound 38, (3R)-3-Methyl-4-[3-(1H-pyrazol-3-yl)-7-(pyridin-2-yl)-1H-pyrazolo[4,3-b]pyridin-5-yl]morpholine] | 6.00 to 7.00 | 8.37 |
| CC(C)n1nc(-c2cc[nH]n2)c2nc(N3CCOC[C@H]3C)cc(-c3ccc(S(C)(=O)=O)cc3)c21 [Compound 41, (3R)-4-[7-(4-Methanesulfonylphenyl)-1-(propan-2-yl)-3-(1H-pyrazol-3-yl)-1H-pyrazolo[4,3-b]pyridin-5-yl]-3-methylmorpholine] | 7.00 to 8.00 | 8.89 |
| C[C@@H]1COCCN1c1ccc2c(n1)c(-c1cc[nH]n1)nn2CC(C)(C)O [Compound 85, 2-Methyl-1-{5-[(3R)-3-methylmorpholin-4-yl]-3-(1H-pyrazol-3-yl)-1H-pyrazolo[4,3-b]pyridin-1-yl}propan-2-ol] | 5.00 to 6.00 | 7.68 |
| CNC(=O)c1cc(N2CCOC[C@H]2C)nc2c(-c3cc[nH]n3)n[nH]c12 [Compound 28, 5-((R)-3-Methyl-morpholin-4-yl)-3-(1H-pyrazol-3-yl)-1H-pyrazolo[4,3-b]pyridine-7-carboxylic acid methylamide] | 6.00 to 7.00 | 8.28 |
| C[C@@H]1COCCN1c1ccc2c(n1)c(-c1cc[nH]n1)nn2-c1ccc(C#N)cc1 [Compound 60, 4-[5-[(3R)-3-Methylmorpholin-4-yl]-3-(1H-pyrazol-3-yl)-1H-pyrazolo[4,3-b]pyridin-1-yl]benzonitrile] | 5.00 to 6.00 | 7.49 |
| Cc1ncncc1-c1cc(N2CCOC[C@H]2C)nc2c(-c3cc[nH]n3)nn(C)c12 [Compound 87, (3R)-3-Methyl-4-[1-methyl-7-(4-methylpyrimidin-5-yl)-3-(1H-pyrazol-3-yl)-1H-pyrazolo[4,3-b]pyridin-5-yl]morpholine] | 7.00 to 8.00 | 9.40 |
| C[C@@H]1COCCN1c1ccc2c(n1)c(-c1cc[nH]n1)nn2CC1CC1 [Compound 63, (3R)-4-[1-(Cyclopropylmethyl)-3-(1H-pyrazol-3-yl)-1H-pyrazolo[4,3-b]pyridin-5-yl]-3-methylmorpholine] | 6.00 to 7.00 | 7.57 |
| C[C@@H]1COCCN1c1ccc2c(n1)c(-c1cc[nH]n1)nn2-c1cccc(S(C)(=O)=O)c1 [Compound 47, 1-(3-Methanesulfonyl-phenyl)-5-((R)-3-methyl-morpholin-4-yl)-3-(1H-pyrazol-3-yl)-1H-pyrazolo[4,3-b]pyridine] | 5.00 to 6.00 | 7.05 |
| C[C@@H]1COCCN1c1cc(C(=O)N(C)C)c2c(n1)c(-c1cc[nH]n1)nn2C [Compound 30, 1-Methyl-5-((R)-3-methyl-morpholin-4-yl)-3-(1H-pyrazol-3-yl)-1H-pyrazolo[4,3-b]pyridine-7-carboxylic acid dimethylamide] | 6.00 to 7.00 | 7.82 |
| CNC(=O)c1cc(N2CCOC[C@H]2C)nc2c(-c3cc[nH]n3)nn(C)c12 [Compound 31, 1-Methyl-5-((R)-3-methyl-morpholin-4-yl)-3-(1H-pyrazol-3-yl)-1H-pyrazolo[4,3-b]pyridine-7-carboxylic acid methylamide] | 6.00 to 7.00 | 7.48 |
| C[C@@H]1COCCN1c1ccc2c(n1)c(-c1cc[nH]n1)nn2C(C)(C)CO [Compound 86, 2-Methyl-2-{5-[(3R)-3-methylmorpholin-4-yl]-3-(1H-pyrazol-3-yl)-1H-pyrazolo[4,3-b]pyridin-1-yl}propan-1-ol] | 5.00 to 6.00 | 7.62 |
| C[C@@H]1COCCN1c1cc(C2=CCS(=O)(=O)CC2)c2c(n1)c(-c1ccn[nH]1)nn2C [Compound 81, 4-[1-Methyl-5-[(3R)-3-methylmorpholin-4-yl]-3-(1H-pyrazol-5-yl)-1H-pyrazolo[4,3-b]pyridin-7-yl]-3,6-dihydro-2H-1lambda6-thiopyran-1,1-dione] | 6.00 to 7.00 | 8.52 |
| C[C@@H]1COCCN1c1ccc2c(n1)c(-c1cc[nH]n1)nn2CCc1ccncc1 [Compound 77, (3R)-3-Methyl-4-[3-(1H-pyrazol-3-yl)-1-[2-(pyridin-4-yl)ethyl]-1H-pyrazolo[4,3-b]pyridin-5-yl]morpholine] | 5.00 to 6.00 | 7.24 |
| C[C@@H]1COCCN1c1ccc2c(n1)c(-c1cc[nH]n1)nn2-c1ccc(S(C)(=O)=O)cc1 [Compound 46, 1-(4-Methanesulfonyl-phenyl)-5-((R)-3-methyl-morpholin-4-yl)-3-(1H-pyrazol-3-yl)-1H-pyrazolo[4,3-b]pyridine] | 5.00 to 6.00 | 7.60 |
| CC(C)Oc1cc(N2CCOC[C@H]2C)nc2c(-c3ccn[nH]3)nn(C)c12 [Compound 44, 7-Isopropoxy-1-methyl-5-((R)-3-methyl-morpholin-4-yl)-3-(2H-pyrazol-3-yl)-1H-pyrazolo[4,3-b]pyridine] | 6.00 to 7.00 | 8.38 |
| C[C@@H]1COCCN1c1ccc2c(n1)c(-c1ccn[nH]1)nn2Cc1ccccc1 [Compound 59, (3R)-4-[1-Benzyl-3-(1H-pyrazol-5-yl)-1H-pyrazolo[4,3-b]pyridin-5-yl]-3-methylmorpholine] | 5.00 to 6.00 | 7.68 |
